The structures appear in SMILES notation. Residues, ends and D or L forms follow the SMILES beside them.

The values that follow come from patent US20240108740A1, “THERAPEUTIC COMPOSITIONS INCLUDING SPN10 AND USES THEREOF” (Stealth BioTherapeutics Inc., priority 2022, published 2024).

The test system of one assay is Sprague-Dawley rats. The experiment in a line: Example 47: wound contraction after burn injury. The conditions noted are these: compared to burn control subjects. In kind it is in vivo, rat. On the procedure: Sprague-Dawley rats (male, 300-350 g) will be pre-treated with (1 mg) peptide conjugates administered i.p. (approx. 3 mg/kg) 1 hour prior to burn (65° C. water, 25 seconds, lower back), followed by the topical application of peptide conjugates to the wound (1 mg), and 1 mg peptide conjugates administered i.p. once every 12 hours for 72 hours. Wounds will be observed for up to 3 weeks post-burn. A similar treatment regimen is followed for the groups treated with aromatic-cationic peptides (an equivalent molar dose of aromatic-cationic peptide based on the concentration of the aromatic-cationic peptide administered in the peptide conjugate treatment group), SPN10(s) (an equivalent molar dose of SPN10 based on the concentration of SPN10 administered in the peptide conjugate treatment group), or SPN10(s) in combination with aromatic-cationic peptides (e.g., an equivalent molar dose of SPN10 based on the concentration of SPN10 administered in the peptide conjugate treatment group and an equivalent molar dose of aromatic-cationic peptide based on the concentration of aromatic-cationic peptide administered in the peptide conjugate treatment group).

For assay [1], the system named is human retinal epithelial cells (HREC). Nature of the assay: Example 55: high glucose-induced injury. Type of assay: cell-based. On the procedure:
Methods of HREC culture useful in the studies of the present technology are known. See generally, Li, et al., Clin. Ophthal. Res. 23:20-2 (2005); Premanand, et al., Invest. Ophthalmol. Vis. Sci. 47:2179-84 (2006). Briefly, HREC cells will be cultured under one of these conditions: 1) normal control; 2) 30 mM glucose; 3) 30 mM glucose+peptide conjugates; 4) 30 mM glucose+an aromatic-cationic peptide; 5) 30 mM glucose+SPN10; 6) 30 mM glucose+SPN10+aromatic-cationic peptides. Survival of HRECs in high glucose co-treated with various concentrations of peptide conjugates (10 nM, 100 nM, 1 μM, 10 μM) will be measured by flow cytometry using Annexin V. See generally, Koopman, et al., Blood 84:1415 (1994); Homburg, et al., Blood X5: 532 (1995); Vermes, et al. J. Immunol. Meth. 184:39 (1995); Fadok, et al., J. Immunol. 148:2207 (1992).
The survival of HRECs in high glucose co-treated with peptide conjugates, aromatic-cationic peptides, or SPN10(s) with or without aromatic-cationic peptides will be tested at 24 hours and 48 hours.
It is expected that glucose (30 mmol/L) will induce cytochrome c release from the mitochondria of HRECs. Fixed HRECs will be immunolabeled with a cytochrome c antibody and a mitochondrial specific protein antibody (HSP60).

Assay [2] relates to Human low density lipoprotein (LDL). The experiment in a line: Example 18: LDL oxidation (conjugated dienes at 234 nm). Type of assay: biochemical. The conditions noted are these: 10 mM, 5 hours at 37° C. On the procedure:
Human low density lipoprotein (LDL) will be prepared fresh from stored plasma. LDL oxidation will be induced catalytically by the addition of 10 mM […], and the formation of conjugated dienes will be monitored at 234 nm for 5 hours at 37° C. (B. Moosmann and C. Behl, Mol. Pharmacol. 61:260-268 (2002).

In a further assay the test system is animal models of ALF. Nature of the assay: Example 44: animal models of acute liver failure (ALF). The following applies: in vivo. From the text: Suitable animal models of ALF utilize surgical procedures, toxic liver injury, or a combination thereof. See Belanger & Butterworth, Metabolic Brain Disease, 20:409-423 (2005). Peptide conjugates, aromatic-cationic peptides, SPN10(s) with or without aromatic-cationic peptides or control vehicle will be administered prior to or simultaneously with a toxic or surgical insult. Hepatic function will be assessed by measuring serum hepatic enzymes (transaminases, alkaline phosphatase), serum bilirubin, serum ammonia, serum glucose, serum lactate, or serum creatinine. Efficacy of SPN10(s) (with or without aromatic-cationic peptides) or conjugates in preventing ALF will be indicated by a reduction in the occurrence or severity of the ALF as indicated by the above markers, as compared to control subjects.

The test system of assay [3] is subjects at risk for developing hyperalgesia. The experiment in a line: Prevention of neuropathy or hyperalgesia in at-risk humans. In kind it is in vivo, human. The conditions noted are these: s.c., once daily. From the text:
Subjects at risk for developing hyperalgesia will be recruited as they present in clinic for the treatment of conditions associated with the development of peripheral neuropathy or hyperalgesia. Independent studies will address neuropathy and hyperalgesia resulting from, caused by, or otherwise associated with genetic disorders, metabolic/endocrine complications, inflammatory diseases, vitamin deficiencies, malignant diseases, and toxicity, such as alcohol, organic metal, heavy metal, radiation, and drug toxicity. Subjects will be selected such that they are at risk for developing a single type of neuropathy or hyperalgesia, having no risk factors outside the scope of the study in which the subject is enrolled, and as yet not having symptoms associated with neuropathy or hyperalgesia. Subjects will be screened for their willingness to enroll in the study, and informed consent will be obtained. […]
After a focused interview about the medical history, baseline measurements of touch and sharpness detection thresholds, grooved pegboard tests, and thermal detection thresholds will be determined according to the methods described above, with statistical analysis as described above. […]
Subjects will be evaluated weekly during the trial for sharpness detection thresholds, grooved pegboard tests, and thermal detection thresholds. […]

Assay [4] concerns mouse peritoneal macrophages. The experiment in a line: Example 1: oxLDL-induced CD36 expression and foam cell formation. Type of assay: cell-based. The procedure: Other controls will include CD36 expression from mouse heart (H) and macrophages obtained from CD36 knockout mice (KO). The amount of CD36 protein will be normalized to β-actin.
Incubation of macrophages with oxLDL for 48 hours is also anticipated to increase foam cell formation. Foam cell will be visualized by oil red O, which stains lipid droplets red.
Incubation of macrophages with oxLDL is anticipated to increase the percentage of apoptotic cells.

On to `N=C(N)NCCC[C@H](NC(=O)[C@@H](N)Cc1c[nH]c2ccccc12)C(=O)N[C@@H](Cc1c[nH]c2ccccc12)C(=O)N[C@@H](CCCCN)C(N)=O` [SPN10, H-L-Trp-L-Arg-L-Trp-L-Lys-NH2] (H-WRWK-NH2), for which the “rate of wound contraction” value in the assay with Sprague-Dawley rats is recorded as “slower rate of wound contraction”. In addition, in assay [1] (30 mM glucose), the “production of ROS” value is reported as “reduce the production of ROS”. In addition, the “survival of HRECs in high glucose (Annexin V)” value in assay [1] (30 mM glucose, 24 hours and 48 hours) was “significantly improved”. For the same compound, the “glucose-induced release of cytochrome c from mitochondria to cytoplasm” value in assay [1] (30 mmol/L glucose, 24 or 48 hours) is recorded as “prevent or attenuate this effect”. The “loss of mitochondrial membrane potential by high glucose (TMRM)” value in assay [1] (24 or 48 hours) is given as “prevent or attenuate this effect”. Besides, the “rate of LDL oxidation” value in assay [2] is listed as “dose-dependently inhibit the rate of LDL oxidation”. Moreover, the “reduced liver function after toxic or surgical liver insult” value in the assay on animal models of ALF was “attenuate or prevent these effects”. In addition, the “development of neuropathy or hyperalgesia” value in assay [3] is given as “attenuated”. Besides, the “percentage of apoptotic cells induced by oxLDL” value in assay [4] is “significantly reduce the percentage of apoptotic cells”. Also, in assay [4] (25 μg/mL oxLDL, 48 hours), the “up-regulation of CD36 protein levels by oxLDL” value is “significantly inhibit the up-regulation of CD36 protein levels”. In addition, the “CD36 protein levels (western blot)” value in assay [4] (compared to vehicle control (V)) was “significantly reduce CD36 protein levels”. In assay [4] (oxLDL 50 μg/mL, 48 hours), the “oxLDL-induced up-regulation of CD36 mRNA” value is reported as “abolish the up-regulation of CD36”. Also, the “oxLDL-induced foam cell formation (oil red O)” value in assay [4] (oxLDL, 48 hours) is recorded as “prevent oxLDL-induced foam cell formation”.
